{"source": "paper PMC9241302", "about": "“Identification of 2-(4-N,N-Dimethylaminophenyl)-5-methyl-1-phenethyl-1H-benzimidazole targeting HIV-1 CA capsid protein and inhibiting HIV-1 replication in cellulo” (BMC Pharmacology & Toxicology, 2022)", "key": {"[1]": {"conditions": "human, microsomes; cited from earlier work"}, "U87 cells": {"tested_on": "U87 cells", "conditions": "cited from earlier work"}, "HIV-1": {"tested_on": "HIV-1", "conditions": "Table 1, PF74, literature value; read-out: IC50 in U87; cited from earlier work"}, "HIV-1 CA [2]": {"target": "HIV-1 CA", "conditions": "Table 1, PF74, literature value; read-out: Binding affinity; cited from earlier work"}, "[3]": {"tested_on": "human embryonic kidney cells", "parameters": "method as in PMID 25512408, PMID 30393786, PMID 24749923, PMID 26492824", "conditions": "read-out: EC50 in human embryonic kidney cells (cytotoxicity); cited from earlier work"}, "HIV-1 CA [4]": {"target": "T1, HIV-1 CA (Human immunodeficiency virus type 1 group M subtype B, UniProt P12493)", "parameters": "the capsid protein (CA) of the Gag polyprotein; made in house; host or cells: Escherichia coli BL21(DE3) pLysS; method as in PMID 30393786", "conditions": "PF74 data from the literature, same condition, cited from earlier work"}, "human TZM-bl": {"tested_on": "human TZM-bl", "conditions": "cited from earlier work"}, "human MT4": {"tested_on": "human MT4", "conditions": "cited from earlier work"}, "[5]": {"test": "Solubility observed in the assays", "assay_type": "physicochemical", "conditions": "for solubility at high concentrations (in words): HIV-1 replication assay"}, "HIV-1 CA [6]": {"target": "T1, HIV-1 CA", "test": "Binding to HIV-1 CA by isothermal microcalorimetry (ITC)", "parameters": "the capsid protein (CA) of the Gag polyprotein", "conditions": "200 µM", "method": "The affinity of compound 696 for HIV-1 CA in vitro was measured by microscale thermophoresis (MST) as described previously for FIV CA [31]. Due to its intrinsic autofluorescence interfering with MST, the binding of compound 314 to CA was measured using isothermal microcalorimetry (ITC) with a Microcal iTC200 calorimeter (Malvern Instruments, Worcestershire, UK). The calorimeter cell contained 200 µL of recombinant HIV-1 CA (kind gifted by Drs Verrier and Coiffier) at 0.78 mg/mL in phosphate buffer (NaH2PO4/Na2HPO4) 50 mM pH 7.5, NaCl 100 mM, 1% DMSO [v/v]. Compound 314 at 200 µM was then injected sequentially into the calorimeter cell (injection #1: 1 µL, injections #2-#20: 2 µL) at 120 s intervals. Data were analyzed using the OriginLab8.5® software according to the manufacturer’s instructions."}, "[7]": {"test": "Cytotoxicity in murine macrophages (MTT)", "assay_type": "cell-based", "conditions": "mouse, J774.1 murine macrophages; Fig. 2 toxicology summary", "method": "(§1) TZM-bl cells, U87-CD4-CCR5, murine macrophages (J774.1), and THP-1 monocytes (ATCC®TIB-202™) were grown following ATCC recommendations. Cells were seeded in a 96-well plate (10^4 cells in 200 µL culture medium) and incubated at 37 °C in a 5% CO2 atmosphere for 48 h, to allow cell adhesion before drug testing. For stimulation (THP-1 monocytes), cells were incubated with 100 nM of phorbol 12-myristate 13-acetate (PMA) for 48 h. […] A vehicle for control (0.4% DMSO) and negative wells (cells in medium) was used in each test. […] After removing the medium, formazan crystals were dissolved in 180 µL of DMSO and 20µL of MTT buffer (0.1 M glycine, 0.1 M NaCl, 0.5 mM EDTA, pH 10.5), and the absorbance at 560 nm was measured. […] Tests were performed in triplicate, in two independent experiments."}, "[8]": {"parameters": "method as in PMID 25512408, PMID 30393786, PMID 24749923, PMID 26492824", "conditions": "cited from earlier work"}, "HIV-1 NL4-3 Ba-L": {"tested_on": "HIV-1 NL4-3 Ba-L", "test": "microbe, parasite or virus in culture", "assay_type": "cell-based", "conditions": "for inhibition of HIV-1 replication (in words): U87-CD4-CCR5 cells, serial 1:2 dilutions from 10 µM", "method": "Compounds were first dissolved in DMSO to reach a concentration of 20 mM. They were further diluted to a 200 µM working stock and then further diluted to reach a starting concentration of 10 µM in the culture plate. U87-CD4-CCR5 cells were seeded in quadruplicate at 4000 cells/well in a final volume of 100 µL. The next day, 24 µL of the compound was added in serial 1:2 dilutions to the cells. Two hours later, 25 µL of infectious virus (NL4-3 Ba-L) were added to the cells with a TCID50 of 250. AZT at 10 µM was included as an inhibition control. The medium was replenished in the presence of compounds once every 3 to 4 days. The supernatant was collected every 3–4 days and analyzed for virus production by an in-house p24 capture ELISA. IC50 was calculated using “Quest Graph™ IC50 Calculator” (AAT Bioquest, Inc., https://www.aatbio.com/tools/ic50-calculator). Cytotoxicity of the compound was tested on U87-CD4-CCR5 cells in parallel by MTT assay (at the same protocol as in Sect. 3.5 but after 11 days of incubation))[39]."}, "[9]": {"conditions": "cited from earlier work"}, "mice": {"tested_on": "mice", "conditions": "cited from earlier work"}, "HIV-1 CA [10]": {"target": "T1, HIV-1 CA", "test": "HIV-1 CA assembly inhibition assay (absorbance at 340 nm)", "assay_type": "biochemical", "parameters": "the capsid protein (CA) of the Gag polyprotein; made in house; host or cells: Escherichia coli BL21(DE3) pLysS", "conditions": "compounds at 25 or 50 µM, CA 5 mg/mL, 30 min", "method": "The CA assembly assay was performed in a final volume of 70 µL in 384-well plates, with a final concentration of 5 mg/mL of purified recombinant HIV-1 CA in Phosphate/NaCl Buffer (NaH2PO4/Na2HPO4 50 mM, NaCl 100 mM, pH 7.4), as described for FIV CA [27, 31]. Absorbance was measured at 340 nm every 30 s in a multiplate reader VarioskanTM Flash Multimode Reader (Thermo Scientific, MA, US) at 37 °C for 30 min. The compounds were tested at a fixed initial dose of 25 or 50 µM (at 0.5% DMSO [v/v]) by adding 1 µL of the concentrated ligand to the well before starting the measurement. The controls were CA at 5 mg/mL in only 0.5% DMSO [v/v] and CA without DMSO. The criteria to select active compounds were the observation of at least 50% of assembly inhibition at these doses, based on the reduction of the OD value at 340 nm at the plateau value compared to the controls."}, "[11]": {"tested_on": "murine macrophages (J774.1)", "test": "Cytotoxicity in murine macrophages (MTT)", "assay_type": "cell-based", "conditions": "50 µM, 24 h", "method": "as §1"}, "[12]": {"tested_on": "HIV-1 reverse transcription (pol viral DNA)", "test": "qPCR quantification of reverse transcribed viral DNA in U87-CD4-CCR5 cells", "assay_type": "cell-based", "conditions": "10 µM, cells preincubated, DNA extracted 48 h post-infection", "protocol": "U87-CD4-CCR5 cells were plated in a 24-wells plate at 1.25 × 10^5 cells per well. […] Total DNA was extracted 48 h post-infection using the AllPrep DNA/RNA Mini Kit (Qiagen, Venlo, Netherlands). […] The following program was used in the LightCycler 480 Real-Time PCR System (Roche, Basel, Switzerland): pre-incubation: 95 °C for 3 min, pre-amplification: 2 cycles of 95 °C for 15 s and 49 °C for 15 s, amplification: 40 cycles of 95 °C for 10 s, 58 °C for 20 s, 72 °C for 30 s, melting curve stage: 95 °C for 5 s, 55 °C for 1 min and then 97 °C with acquisition every 10 °C, cooling stage: 40 °C for 10 s. Serial dilution of the 8E5 cell line which contains 1 copy of HIV-1 proviral DNA per cell was used as a standard curve for viral RT products [46]. […] Results were calculated as the number of copies of Pol per copy of β-actin. Statistical analysis was performed using an unpaired, two-tailed, Mann–Whitney test with GraphPad Prism 7.0 software. Tests were performed in quadruplicate, in two independent experiments."}}, "note": "“Also recorded” adds a separate entry of the source. Where two headings read alike, the source gives them in different places.", "data": [{"smiles": "Cc1[nH]c2ccccc2c1CC(=O)NC(Cc1ccccc1)C(=O)N(C)c1ccccc1", "note": "(centres unmarked) [PF74]", "values": [{"measurement": "Metabolic stability, half-life (t1/2)", "setting": "[1]", "value": "Human liver microsomes, the half-life (t1/2) less than 1 min"}, {"measurement": "EC50", "setting": "U87 cells", "value": 75, "unit": "µM"}, {"measurement": "IC50", "setting": "HIV-1", "value": 0.06, "unit": "µM"}, {"measurement": "Kd", "setting": "HIV-1 CA [2]", "value": "0.06 to 0.09", "unit": "µM"}, {"measurement": "EC50", "setting": "[3]", "value": "> 50", "unit": "µM"}, {"measurement": "Effect in p24 multimerization in vitro", "setting": "HIV-1 CA [4]", "value": "accelerated"}, {"measurement": "Effect in p24 multimerization in vitro", "setting": "HIV-1 CA [4]; listed as C00001", "value": "acceleration"}, {"measurement": "EC50", "setting": "human TZM-bl", "value": 47, "unit": "µM"}, {"measurement": "EC50", "setting": "human TZM-bl; read-out: EC50 in TZM-bl cells (μM) 48hs, Table 1, PF74, 48hs, literature value", "value": 23.5, "unit": "µM"}, {"measurement": "EC50", "setting": "human MT4", "value": 70, "unit": "µM"}]}, {"smiles": "C=CCn1c(C(=O)N2CCN(C/C=C/c3ccccc3)CC2)cs/c1=N/N=C\\C=C\\c1ccco1", "note": "[compound 314]", "values": [{"measurement": "solubility", "setting": "[5]; pH 7.4, CA assembly assay, read-out: insolubility at concentrations", "value": "> 10", "unit": "µM"}, {"measurement": "specific binding for HIV-1 CA", "setting": "HIV-1 CA [6]", "value": "no specific binding"}, {"measurement": "EC50", "setting": "[7]", "value": 40, "unit": "µM"}, {"measurement": "genotoxicity by Micronucleus Test", "setting": "[8]", "value": "Not genotoxic; also recorded: no genotoxicity"}, {"measurement": "inhibition of HIV-1 replication (in words)", "setting": "HIV-1 NL4-3 Ba-L", "value": "clear dose–response inhibition; also recorded: inhibition only at 10 µM"}, {"measurement": "AMES Test (mutagenicity)", "setting": "[9]", "value": "non mutagenic; also recorded: no mutagenicity"}, {"measurement": "Oral Rat LD50", "setting": "mice; Table S1, 314, not marked as TEST-calculated, Fig. 2 gives mice", "value": ">2000", "unit": "mg/kg"}, {"measurement": "LD50 in mice (oral acute toxicity)", "setting": "mice", "value": 2000, "unit": "mg/kg"}]}, {"smiles": "C=CCn1c(-c2ccc3ccccc3c2)cs\\c1=N/N=C/C=C/c1ccco1", "note": "[compound 305]", "values": [{"measurement": "EC50", "setting": "[7]", "value": 50, "unit": "µM"}, {"measurement": "interference with the assembly of HIV-1 CA in vitro", "setting": "HIV-1 CA [10]", "value": "interference with the assembly"}, {"measurement": "AMES Test (mutagenicity)", "setting": "[9]", "value": "non mutagenic"}, {"measurement": "LD50 in mice (oral acute toxicity)", "setting": "mice", "value": 413, "unit": "mg/kg"}]}, {"smiles": "CC(/C=N/N1CCSCC1)=C\\c1ccco1", "note": "[compound 878]", "values": [{"measurement": "solubility at high concentrations (in words)", "setting": "[5]", "value": "solubility problems"}, {"measurement": "EC50", "setting": "[7]", "value": 50, "unit": "µM"}, {"measurement": "interference with the assembly of HIV-1 CA in vitro", "setting": "HIV-1 CA [10]", "value": "interference with the assembly"}, {"measurement": "inhibition of HIV-1 replication (in words)", "setting": "HIV-1 NL4-3 Ba-L", "value": "trend towards inhibition"}]}, {"smiles": "CCOC(=O)c1n(Cc2ccc(N(C)C)cc2)c2ccc([N+](=O)[O-])cc2[n+]1[O-]", "note": "[compound 553]", "values": [{"measurement": "unspecific cytotoxicity in murine macrophages", "setting": "[11]", "value": 100, "unit": "%"}, {"measurement": "EC50", "setting": "[7]", "value": "< 50", "unit": "µM"}, {"measurement": "interference with the assembly of HIV-1 CA in vitro", "setting": "HIV-1 CA [10]", "value": "interference with the assembly"}]}, {"smiles": "Cc1cn([C@H]2C[C@H](N=[N+]=[N-])[C@@H](CO)O2)c(=O)[nH]c1=O", "note": "[AZT, Zidovudine, reference compound]", "values": [{"measurement": "inhibition of HIV-1 reverse transcription (pol viral DNA by qPCR)", "setting": "[12]", "value": "efficient inhibition"}, {"measurement": "p24 production", "setting": "HIV-1 NL4-3 Ba-L; AZT 10 µM inhibition control", "value": "No p24 production was detected"}]}, {"smiles": "C=CCn1c(C(=O)O)cs/c1=N\\N=C\\c1ccc(/C=N/N=c2\\scc(C(=O)O)n2CC=C)cc1", "note": "[compound 1310]", "values": [{"measurement": "solubility at high concentrations (in words)", "setting": "[5]", "value": "solubility problems"}, {"measurement": "EC50", "setting": "[7]", "value": "> 50", "unit": "µM"}, {"measurement": "interference with the assembly of HIV-1 CA in vitro", "setting": "HIV-1 CA [10]", "value": "interference with the assembly"}, {"measurement": "inhibition of HIV-1 replication (in words)", "setting": "HIV-1 NL4-3 Ba-L", "value": "trend towards inhibition"}]}]}
